In patent publication US20220411419A1, “SMALL MOLECULE MODULATORS OF MHC-I” (RetroVirox, Inc., priority 2018, published 2022):

How the values were obtained:
[1] = tested on: downmodulation of MHC-I molecules expressed on the surface of HIV infected SupT1 cells; experiment: cells; details: for EC50: Human immunodeficiency virus 1, SUP-T1, read-out: EC50 for inhibition of MHC-I downmodulation utilizing the R1 parameter; for activity at 100 µM: Human immunodeficiency virus 1, SUP-T1, read-out: R1 @ 100 μM (R1 value for MHC-I downmodulation as % of the vehicle control)
in vitro = details: human, uninfected SupT1 cells

## CC1(C)Cc2cccc(OCC(=O)Nc3nc4c(Br)cccc4s3)c2O1 [Compound 1, N-(4-bromobenzo[d]thiazol-2-yl)-2-((2,2-dimethyl-2,3-dihydrobenzofuran-7-yl)oxy)acetamide]
[1]
  EC50: 0.12 µM
In vitro
  CC50 at 48 h: > 90 µM

## Cc1ccc(NC(=O)COc2cccc3c2OC(C)(C)C3)nn1 [Compound 2, 2-((2,2-Dimethyl-2,3-dihydrobenzofuran-7-yl)oxy)-N-(6-methylpyridazin-3-yl)acetamide]
[1]
  EC50: 2.1 µM
In vitro
  CC50 at 48 h: > 90 µM

## CC1(C)Cc2cccc(OCC(=O)Nc3nc4c(s3)CCCCC4)c2O1 [Compound 3, 2-((2,2-Dimethyl-2,3-dihydrobenzofuran-7-yl)oxy)-N-(5,6,7,8-tetrahydro-4H-cyclohepta[d]thiazol-2-yl)acetamide]
[1]
  EC50: 0.2 µM
In vitro
  CC50 at 48 h: > 100 µM

## CC1(C)Cc2cccc(OCC(=O)Nc3nc4c(F)c(F)c(F)cc4s3)c2O1 [Compound 4, 2-((2,2-Dimethyl-2,3-dihydrobenzofuran-7-yl)oxy)-N-(4,5,6-trifluorobenzo [d]thiazol-2-yl)acetamide]
[1]
  EC50: 0.068 µM
In vitro
  CC50 at 48 h: > 100 µM

## CC1(C)Cc2cccc(OCC(=O)Nc3nc(C4CC4)cs3)c2O1 [Compound 5, N-(4-Cyclopropylthiazol-2-yl)-2-((2,2-dimethyl-2,3-dihydrobenzofuran-7-yl)oxy)acetamide]
[1]
  EC50: 0.55 µM
In vitro
  CC50 at 48 h: > 100 µM

## CC1(C)Cc2cccc(OCC(=O)Nc3nc4c(F)c(F)ccc4s3)c2O1 [Compound 6, N-(4,5-Difluorobenzo[d]thiazol-2-yl)-2-((2,2-dimethyl-2,3-dihydrobenzofuran-7-yl)oxy)acetamide]
[1]
  EC50: 6.3 µM
In vitro
  CC50 at 48 h: 36 µM

## CC1(C)Cc2cccc(OCC(=O)Nc3ccccn3)c2O1 [Compound 7, 2-((2,2-Dimethyl-2,3-dihydrobenzofuran-7-yl)oxy)-N-(pyridin-2-yl) acetamide]
[1]
  EC50: > 25 µM
  activity at 100 µM: 34%
In vitro
  CC50: > 100 µM
  CC50 at 48 h: > 100 µM

## Cc1cccc(NC(=O)COc2cccc3c2OC(C)(C)C3)n1 [Compound 8, 2-((2,2-Dimethyl-2,3-dihydrobenzofuran-7-yl)oxy)-N-(6-methylpyridin-2-yl) acetamide]
[1]
  EC50: 23 µM
In vitro
  CC50 at 48 h: > 100 µM

## Cc1cnc(NC(=O)COc2cccc3c2OC(C)(C)C3)cn1 [Compound 9, 2-((2,2-Dimethyl-2,3-dihydrobenzofuran-7-yl)oxy)-N-(5-methylpyrazin-2-yl)acetamide]
[1]
  EC50: 0.5 µM
In vitro
  CC50 at 48 h: > 125 µM

## CC1(C)Cc2cccc(OCC(=O)Nc3cncc4ccccc34)c2O1 [Compound 10, 2-((2,2-Dimethyl-2,3-dihydrobenzofuran-7-yl)oxy)-N-(isoquinolin-4-yl) acetamide]
[1]
  EC50: > 25 µM
  activity at 100 µM: 46%
In vitro
  CC50: > 100 µM
  CC50 at 48 h: > 100 µM

## Cc1ccc(NC(=O)COc2cccc3c2OC(C)(C)C3)cn1 [Compound 11, 2-((2,2-Dimethyl-2,3-dihydrobenzofuran-7-yl)oxy)-N-(6-methylpyridin-3-yl) acetamide]
[1]
  EC50: > 25 µM
  activity at 100 µM: 48%
In vitro
  CC50: > 100 µM
  CC50 at 48 h: > 100 µM

## CC1(C)Cc2cccc(OCC(=O)Nc3ccc(C(F)(F)F)nc3)c2O1 [Compound 12, 2-((2,2-Dimethyl-2,3-dihydrobenzofuran-7-yl)oxy)-N-(6-(trifluoromethyl)pyridin-3-yl)acetamide]
[1]
  EC50: > 25 µM
  activity at 100 µM: 51%
In vitro
  CC50: > 100 µM
  CC50 at 48 h: > 100 µM

## CC1(C)Cc2cccc(OCC(=O)Nc3cccc4nccnc34)c2O1 [Compound 13, 2-((2,2-Dimethyl-2,3-dihydrobenzofuran-7-yl)oxy)-N-(quinoxalin-5-yl) acetamide]
[1]
  EC50: > 25 µM
  activity at 100 µM: 63%
In vitro
  CC50: > 100 µM
  CC50 at 48 h: > 100 µM

## CC1(C)Cc2cccc(OCC(=O)Nc3cccc4cnccc34)c2O1 [Compound 14, 2-((2,2-Dimethyl-2,3-dihydrobenzofuran-7-yl)oxy)-N-(isoquinolin-5-yl) acetamide]
[1]
  EC50: > 25 µM
  activity at 100 µM: 18%
In vitro
  CC50: > 100 µM
  CC50 at 48 h: > 100 µM

## CC1(C)Cc2cccc(OCC(=O)Nc3ncnc4ccccc34)c2O1 [Compound 15, 2-((2,2-Dimethyl-2,3-dihydrobenzofuran-7-yl)oxy)-N-(quinazolin-4-yl) acetamide]
[1]
  EC50: > 25 µM
  activity at 100 µM: 14%
In vitro
  CC50: > 100 µM
  CC50 at 48 h: > 100 µM

## CC1(C)Cc2cccc(OCC(=O)Nc3ccc4ccccc4n3)c2O1 [Compound 16, 2-((2,2-Dimethyl-2,3-dihydrobenzofuran-7-yl)oxy)-N-(quinolin-2-yl) acetamide]
[1]
  EC50: 10 µM
In vitro
  CC50 at 48 h: > 90 µM

## CC1(C)Cc2cccc(OCC(=O)Nc3cc4ccccc4cn3)c2O1 [Compound 17, 2-((2,2-Dimethyl-2,3-dihydrobenzofuran-7-yl)oxy)-N-(isoquinolin-3-yl) acetamide]
[1]
  EC50: 22 µM
In vitro
  CC50 at 48 h: > 125 µM

## Cc1cc(NC(=O)COc2cccc3c2OC(C)(C)C3)ncc1Cl [Compound 18, N-(5-Chloro-4-methylpyridin-2-yl)-2-((2,2-dimethyl-2,3-dihydrobenzofuran-7-yl)oxy)acetamide]
[1]
  EC50: 18 µM
In vitro
  CC50 at 48 h: > 125 µM

## Cc1nc(NC(=O)C(C)(C)Oc2cccc3c2OC(C)(C)C3)sc1C [Compound 19, 2-((2,2-Dimethyl-2,3-dihydrobenzofuran-7-yl)oxy)-N-(4,5-dimethylthiazol-2-yl)-2-methylpropanamide]
[1]
  EC50: > 30 µM
  activity at 100 µM: 20%
In vitro
  CC50: > 90 µM
  CC50 at 48 h: > 90 µM

## CC1(C)Cc2cccc(OC(C)(C)C(=O)Nc3nc4ccccc4s3)c2O1 [Compound 20, N-(Benzo[d]thiazol-2-yl)-2-((2,2-dimethyl-2,3-dihydrobenzofuran-7-yl)oxy)-2-methylpropanamide]
[1]
  EC50: > 30 µM
  activity at 100 µM: 56%
In vitro
  CC50: > 90 µM
  CC50 at 48 h: > 90 µM

## CC1(C)Cc2cccc(OCC(=O)Nc3nc(C(F)(F)F)cs3)c2O1 [Compound 21, 2-((2,2-dimethyl-2,3-dihydrobenzofuran-7-yl)oxy)-N-(4-(trifluoromethyl)thiazol-2-yl)acetamide]
[1]
  EC50: 0.56 µM
In vitro
  CC50 at 48 h: > 100 µM

## CC1(C)Cc2cccc(OCC(=O)Nc3ccc(C#N)cn3)c2O1 [Compound 22, N-(5-Cyanopyridin-2-yl)-2-((2,2-dimethyl-2,3-dihydrobenzofuran-7-yl)oxy) acetamide]
[1]
  EC50: 25 µM
In vitro
  CC50 at 48 h: > 100 µM

## CC1(C)Cc2cccc(OCC(=O)Nc3nc(C(C)(C)C)cs3)c2O1 [Compound 23, N-(4-(tert-Butyl)thiazol-2-yl)-2-((2,2-dimethyl-2,3-dihydrobenzofuran-7-yl)oxy)acetamide]
[1]
  EC50: 4.4 µM
In vitro
  CC50 at 48 h: > 100 µM

## CC1(C)Cc2cccc(OCC(=O)Nc3ccc(Cl)nn3)c2O1 [Compound 24, N-(6-Chloropyridazin-3-yl)-2-((2,2-dimethyl-2,3-dihydrobenzofuran-7-yl)oxy)acetamide]
[1]
  EC50: 4.5 µM
In vitro
  CC50 at 48 h: > 100 µM

## CC1(C)Cc2cccc(OCC(=O)Nc3ccc(Br)nn3)c2O1 [Compound 25, N-(6-Bromopyridazin-3-yl)-2-((2,2-dimethyl-2,3-dihydrobenzofuran-7-yl)oxy)acetamide]
[1]
  EC50: 3.6 µM
In vitro
  CC50 at 48 h: > 100 µM

## COc1ccc(NC(=O)COc2cccc3c2OC(C)(C)C3)nn1 [Compound 26, 2-((2,2-Dimethyl-2,3-dihydrobenzofuran-7-yl)oxy)-N-(6-methoxypyridazin-3-yl)acetamide]
[1]
  EC50: > 25 µM
  activity at 100 µM: 53%
In vitro
  CC50: > 100 µM
  CC50 at 48 h: > 100 µM

## CC1(C)Cc2cccc(OCC(=O)Nc3nccc(C(F)(F)F)n3)c2O1 [Compound 28, 2-((2,2-Dimethyl-2,3-dihydrobenzofuran-7-yl)oxy)-N-(4-(trifluoromethyl)pyrimidin-2-yl)acetamide]
[1]
  EC50: > 25 µM
  activity at 100 µM: 80%
In vitro
  CC50: > 100 µM
  CC50 at 48 h: > 100 µM

## Cc1nccc(NC(=O)COc2cccc3c2OC(C)(C)C3)n1 [Compound 29, 2-((2,2-Dimethyl-2,3-dihydrobenzofuran-7-yl)oxy)-N-(2-methylpyrimidin-4-yl)acetamide]
[1]
  EC50: > 25 µM
  activity at 100 µM: 65%
In vitro
  CC50: > 100 µM
  CC50 at 48 h: > 100 µM

## CC1(C)Cc2cccc(OCC(=O)Nc3cccc(Br)n3)c2O1 [Compound 30, N-(6-Bromopyridin-2-yl)-2-((2,2-dimethyl-2,3-dihydrobenzofuran-7-yl)oxy)acetamide]
[1]
  EC50: 20 µM
In vitro
  CC50 at 48 h: > 125 µM

## Cc1nc(N(Cc2ccccc2)C(=O)COc2cccc3c2OC(C)(C)C3)sc1C [Compound 31, N-Benzyl-2-((2,2-dimethyl-2,3-dihydrobenzofuran-7-yl)oxy)-N-(4,5-dimethylthiazol-2-yl)acetamide]
[1]
  EC50: 0.21 µM
In vitro
  CC50 at 48 h: > 100 µM

## CC1(C)Cc2cccc(OCC(=O)N(Cc3ccccc3)c3nc4c(F)cccc4s3)c2O1 [Compound 32, N-Benzyl-2-((2,2-dimethyl-2,3-dihydrobenzofuran-7-yl)oxy)-N-(4-fluorobenzo[d]thiazol-2-yl)acetamide]
[1]
  EC50: 0.009 µM
In vitro
  CC50 at 48 h: > 100 µM

## Cc1csc(N(Cc2ccccn2)C(=O)COc2cccc3c2OC(C)(C)C3)n1 [Compound 33, 2-((2,2-Dimethyl-2,3-dihydrobenzofuran-7-yl)oxy)-N-(4-methylthiazol-2-yl)-N-(pyridin-2-ylmethyl)acetamide]
[1]
  EC50: 0.18 µM
In vitro
  CC50 at 48 h: > 100 µM

## Cc1csc(N(Cc2cccnc2)C(=O)COc2cccc3c2OC(C)(C)C3)n1 [Compound 34, 2-((2,2-Dimethyl-2,3-dihydrobenzofuran-7-yl)oxy)-N-(4-methylthiazol-2-yl)-N-(pyridin-3-ylmethyl)acetamide]
[1]
  EC50: 1.4 µM
In vitro
  CC50 at 48 h: 12 µM

## Cc1csc(N(Cc2ccncc2)C(=O)COc2cccc3c2OC(C)(C)C3)n1 [Compound 35, 2-((2,2-Dimethyl-2,3-dihydrobenzofuran-7-yl)oxy)-N-(4-methylthiazol-2-yl)-N-(pyridin-4-ylmethyl)acetamide]
[1]
  EC50: 1.42 µM
In vitro
  CC50 at 48 h: > 100 µM
